Laboratory results: US12180160B1, “1-(naphthalen-2-yloxy)-3-(piperidin-1-yl)propan-2-ol as an eco-friendly insecticidal agent against Spodoptera littoralis (boisd.)” (priority 2023, dated 2024)
Converted amounts (≈) assume the structure as drawn.

System: Spodoptera littoralis larvae (2nd and 4th instars)
Experiment: Insecticidal bioassay screening (castor leaf dip)
Assay type: in vivo
Settings: for Toxic ratio: 72 h, fenoxycarb's LC50/compound's LC50 × 100; for LC50 (ppm): after 72 h of treatment
Protocol: Five concentrations (200, 100, 50, 25, 12.5 ppm) were designed for this synthetic compound and the reference fenoxycarb compound as the dynamic ingredients based on ppm via diluting the commercial formulation.
In this experiment, castor leaves are immersed in each of the previously prepared concentrations of the components for 10 seconds and then left to dry for 60 minutes. Larvae of the second and fourth instars of each checked strain are prepared with treated leaves in gauze-covered glass containers for 72 hrs. An untreated control is made in which leaves are dipped in triton x-100 and distilled water only. Then the preserved leaves were removed & fresh, untreated leaves were provided for 72 hours. Three replicates (10 larvae each) were checked for each concentration. Daily inspection was carried out for all treatments and mortality percentages were recorded 3 days (72 hours) after treatment. The average mortality percentage was corrected employing Abbott's formula. The corrected mortality rate for each of the previously synthesized compounds is statistically calculated according to Finney (1970). Through this rate, the corresponding concentration test lines (LDP lines) are assessed. Fifty and ninety percent mortality are determined, and the regression values for the checked products were previously evaluated.

Structure (SMILES)	Toxic ratio (2nd instar larvae)	Toxic ratio (4th instar larvae)	LC50 (Spodoptera littoralis, foliar)	morphological effect on Spodoptera littoralis (FIGURE) (after administration of the compound)	activity against Spodoptera littoralis (in words) (compared with reference insecticide fenoxycarb)	LC50 (ppm) (2nd instar larvae of S. littoralis)	LC50 (ppm) (4th instar larvae of S. littoralis)
OC(COc1ccc2ccccc2c1)CN1CCCCC1 (stereo not drawn) [Compound 1, 1-(naphthalen-2-yloxy)-3-(piperidin-1-yl)propan-2-ol]	10.9	59.8	25 µg/mL (≈ 87.7 µM)	morphological malformations	active against Spodoptera littoralis		
CCOC(=O)NCCOc1ccc(Oc2ccccc2)cc1 [Fenoxycarb, reference compound]	100	1				2.73 ppm	43.231 ppm
